Assay results: patent US20220087987A1, “A METHOD FOR TREATING SWI/SNF COMPLEX-DEFICIENT CANCERS COMPRISING GLUTATHIONE (GSH) METABOLIC PATHWAY INHIBITOR” (National Cancer Center, priority 2018, published 2022)
Like-named read-outs stand apart in the source and are kept apart here. Peptide text beside a SMILES is read from it. * marks the point of attachment. Cbz = O=C(OCc1ccccc1)*

How the values were obtained:
[1] = system: ARID1A-KO HCT116 cells; assay: Drug library screen, cell viability (CellTiter-Glo); assay type: cell-based, human; conditions: Homo sapiens, HCT-116, 120 h, read-out: Cell viability, KO
Outline: (§1)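 Luminescent ATP read-out (CellTiter-Glo) at day 5, normalised to solvent (DMSO) controls, in paired HCT116 lines, ARID1A knockout versus wild type. Candidates selected where KO cells fell below 40% viability and WT cells stayed above 80%.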

[2] = as above; assay type: cell-based, human; conditions: human
Outline: as §1

[3] = HCT116 ARID1A-WT, 10 μM for 5 days, relative to cells treated with solvent (DMSO), read-out: Cell viability, WT
[4] = HCT116 ARID1A-KO, 10 μM for 5 days, relative to cells treated with solvent (DMSO)

| Compound | viability at 5 days, 10 μM [2, 3] | viability at 10 µM [1, 4] | other results |
| --- | --- | --- | --- |
| Cn1cnc2c(NCc3ccccc3)nc(NCCO)nc21 [Olomoucine] | 173% | – | viability at 10 µM [1]: 122% |
| CN(N=O)c1cc(O)ccc1O [Dephostatin] | – | 60.2% | viability [2, 3]: 90.4% |
| CSc1ccc(/C=C2/C(C)=C(CC(=O)O)c3cc(F)ccc32)cc1 [Sulindac sulfide] | 195% | 140% | – |
| CCCCCCCCCCC[C@@H](C[C@@H]1OC(=O)[C@H]1CCCCCC)OC(=O)[C@H](CC(C)C)NC=O [orlistat] | 84.6% | 86.1% | – |
| COC(=O)Nc1nc2ccc(C(=O)c3cccs3)cc2[nH]1 [Nocodazole] | 6.51% | – | viability at 10 µM [1]: 7.15% |
| NC(=O)NO [Hydroxyurea] | 157% | 117% | – |
| Cc1cn(-c2cc(NC(=O)c3ccc(C)c(Nc4nccc(-c5cccnc5)n4)c3)cc(C(F)(F)F)c2)cn1 [nilotinib] | 85.8% | 91.6% | – |
| N=C(N)NC(=O)c1nc(Cl)c(N)nc1N [Amiloride] | 106% | 113% | – |
| COCCn1c2c([n+](Cc3cnccn3)c1C)C(=O)c1ccccc1C2=O [YM155] | 2.67% | 3.24% | – |
| COc1ccc([C@@H]2Sc3ccccc3N(CCN(C)C)C(=O)[C@@H]2OC(C)=O)cc1 [Diltiazem] | 102% | 115% | – |
| CC(=O)N[C@@H](CS)C(=O)O [N-Acetyl-L-cysteine] | 186% | 139% | – |
| CO[C@H]1C[C@@H]2CC[C@@H](C)[C@@](O)(O2)C(=O)C(=O)N2CCCC[C@H]2C(=O)O[C@H]([C@H](C)C[C@@H]2CC[C@@H](OC(=O)C(C)(CO)CO)[C@H](OC)C2)CC(=O)[C@H](C)/C=C(\C)[C@@H](O)[C@@H](OC)C(=O)[C@H](C)C[C@H](C)/C=C/C=C/C=C/1C [temsirolimus] | 82.1% | 75% | – |
| C=CC[C@@H]1/C=C(\C)C[C@H](C)C[C@H](OC)[C@H]2O[C@@](O)(C(=O)C(=O)N3CCCC[C@H]3C(=O)O[C@H](/C(C)=C/[C@@H]3CC[C@@H](O)[C@H](OC)C3)[C@H](C)[C@@H](O)CC1=O)[C@H](C)C[C@@H]2OC [FK-506] | 173% | 130% | – |
| CCC1(c2ccc(N)cc2)CCC(=O)NC1=O (stereo not shown) [Aminoglutethimide] | 108% | 107% | – |
| C[C@@H](Oc1cc(-c2cnn(C3CCNCC3)c2)cnc1N)c1c(Cl)ccc(F)c1Cl [crizotinib] | 2.29% | 5.88% | – |
| CC#C[C@]1(O)CC[C@H]2[C@@H]3CCC4=CC(=O)CCC4=C3[C@@H](c3ccc(N(C)C)cc3)C[C@@]21C [Mifepristone] | 95.9% | 85.3% | – |
| CO[C@H]1C[C@@H]2CC[C@@H](C)[C@@](O)(O2)C(=O)C(=O)N2CCCC[C@H]2C(=O)O[C@H]([C@H](C)C[C@@H]2CC[C@@H](OCCO)[C@H](OC)C2)CC(=O)[C@H](C)/C=C(\C)[C@@H](O)[C@@H](OC)C(=O)[C@H](C)C[C@H](C)/C=C/C=C/C=C/1C [everolimus] | 77.4% | 77.1% | – |
| CC[C@H]1/C=C/C=C/C[C@@H](C)[C@H](O)[C@@](C)(O)C(=O)[C@@H](C)[C@H](O)[C@@H](C)C(=O)[C@@H](C)[C@H](O)[C@@H](C)/C=C/C(=O)O[C@@H]2[C@H](C)[C@H](CC1)O[C@]1(CC[C@H](C)[C@H](C[C@@H](C)O)O1)[C@H]2C [Oligomycin] | 13.6% | 21.7% | – |
| CC(Cc1ccc(O)c(O)c1)C(C)Cc1ccc(O)c(O)c1 (stereo not shown) [Nordihydroguaiaretic acid (NDGA), Nordihydroguaiaretic acid] | 101% | 112% | – |
| CS(=O)(=O)c1ccc(C(=O)Nc2ccc(Cl)c(-c3ccccn3)c2)c(Cl)c1 [Vismodegib] | 88.7% | 109% | – |
| C#Cc1cccc(Nc2ncnc3cc(OCCOC)c(OCCOC)cc23)c1 [erlotinib] | 48.1% | 48.6% | – |
| C[n+]1cc2c3c(ccc2c2ccc4cc5c(cc4c21)OCO5)OCO3 [Sanguinarine] | – | 2.09% | viability [2, 3]: 1.83% |
| Cc1ccc2nc(NCCN)c3ncc(C)n3c2c1 [BMS-345541] | 11.9% | 19.7% | – |
| O=C1Cc2c([nH]c3ccc(Br)cc23)-c2ccccc2N1 [Kenpaullone] | 66.2% | 35% | – |
| COc1cc([C@@H]2c3cc4c(cc3[C@@H](O[C@@H]3O[C@@H]5CO[C@@H](C)O[C@H]5[C@H](O)[C@H]3O)[C@H]3COC(=O)[C@H]23)OCO4)cc(OC)c1O [Etoposide (VP-16), Etoposide] | 30.6% | 27.4% | – |

| Compound | viability at 5 days, 10 μM [2, 3] | viability at 10 µM [1, 4] | other results |
| --- | --- | --- | --- |
| O=c1oc2c(O)c(O)cc3c(=O)oc4c(O)c(O)cc1c4c23 [Ellagic acid] | 127% | 161% | – |
| NC(=O)c1ccc(I)c([N+](=O)[O-])c1 [BSI-201 (Iniparib), Iniparib] | 63.5% | 93.3% | – |
| C[C@H](CCC(=O)O)C[C@H](C)C[C@H](C)C(=O)/C=C(\O)[C@H](C)C[C@H](C)C/C=C/[C@@H](C)[C@@H](O)[C@@H](C)[C@@H](O)C[C@@H]1CC[C@@](C)([C@H]2CC[C@@](C)([C@@H](C)O)O2)O1 [Ionomycin] | – | 35.9% | viability [2, 3]: 31.8% |
| COc1ccc(Cl)cc1C(=O)NCCc1ccc(S(=O)(=O)NC(=O)NC2CCCCC2)cc1 [Glibenclamide] | 108% | 109% | – |
| C[C@]12CCC(=O)C(O)=C1CC[C@@H]1[C@@H]2CC[C@]2(C)C(=O)CC[C@@H]12 [Formestane] | – | 69.5% | viability [2, 3]: 108% |
| CCCOc1ccccc1-c1nc2nn[nH]c2c(=O)[nH]1 [Zaprinast] | 93.5% | 82.6% | – |
| Oc1nc(-c2ccc(C(F)(F)F)cc2)nc2c1CSCC2 [XAV939] | 87% | 111% | – |
| N#CC(=C(/N)Sc1ccccc1N)/C(C#N)=C(\N)Sc1ccccc1N [U0126] | – | – | viability at 10 µM [1]: 68.3%; viability [2]: 80.5% |
| CC[C@@]1([C@@H]2O[C@@H]([C@H]3O[C@@](O)(CO)[C@H](C)C[C@@H]3C)C[C@@H]2C)CC[C@H]([C@]2(C)CC[C@]3(C[C@H](O)[C@@H](C)[C@@H]([C@@H](C)[C@@H](OC)[C@H](C)C(=O)O)O3)O2)O1 [Monensin] | – | – | viability at 10 µM [1]: 3.95%; viability at 5 days, 10 μM [2]: 3.45% |
| CNCc1ccc(-c2[nH]c3cc(F)cc4c3c2CCNC4=O)cc1 [AG014699 (Rucaparib), Rucaparib] | 18.7% | 16% | – |
| CC(C)C[C@@H](C=O)NC(=O)[C@H](CC(C)C)NC(=O)[C@H](CC(C)C)NC(=O)OCc1ccccc1 [MG-132] (Cbz-Leu-Leu-Leu-aldehyde) | – | 2.45% | viability [2, 3]: 3.45% |
| CC[C@@]1(O)C[C@H](O[C@H]2C[C@H](N(C)C)[C@H](O[C@H]3C[C@H](O)[C@H](O[C@H]4CCC(=O)[C@H](C)O4)[C@H](C)O3)[C@H](C)O2)c2c(cc3c(c2O)C(=O)c2c(O)cccc2C3=O)[C@H]1C(=O)OC [Aclarubicin] | – | 5.53% | viability [2, 3]: 4.48% |
| C[C@@]1(CO)[C@H](O)CC[C@@]2(C)[C@H]1CC[C@H]1C[C@@H]3C[C@@]12CC[C@]3(O)CO [Aphidicolin] | 14% | 11.9% | – |
| CC(C)(C)c1cc(O)ccc1O [t-Butylhydroquinone (BHQ), t-Butylhydroquinone] | 95.4% | 96.6% | – |
| Cc1cc(Nc2cc(N3CCN(C)CC3)nc(/C=C/c3ccccc3)n2)n[nH]1 [ENMD-2076] | 9.16% | 10.1% | – |
| CO[C@H]1C[C@@H]2CC[C@@H](C)[C@@](O)(O2)C(=O)C(=O)N2CCCC[C@H]2C(=O)O[C@H]([C@H](C)C[C@@H]2CC[C@@H](O)[C@H](OC)C2)CC(=O)[C@H](C)/C=C(\C)[C@@H](O)[C@@H](OC)C(=O)[C@H](C)C[C@H](C)/C=C/C=C/C=C/1C [Rapamycin] | 169% | 125% | – |
| C[C@@H](N)[C@H]1CC[C@H](C(=O)Nc2ccncc2)CC1 [Y27632] | 160% | – | viability at 10 µM [1]: 98.6% |
| C[C@@H]1O[C@@H](O[C@H]2C[C@@H](O)[C@]3(CO)[C@H]4[C@H](O)C[C@]5(C)[C@@H](C6=CC(=O)OC6)CC[C@]5(O)[C@@H]4CC[C@]3(O)C2)[C@H](O)[C@H](O)[C@H]1O [Ouabain] | – | 5.12% | viability [2, 3]: 4.81% |
| CNC(=O)c1cc(Oc2ccc(NC(=O)Nc3ccc(Cl)c(C(F)(F)F)c3)cc2)ccn1 [sorafenib] | 61.4% | 70.4% | – |
| COc1cc2ncnc(Nc3ccc(F)c(Cl)c3)c2cc1OCCCN1CCOCC1 [gefitinib] | 54.5% | 72.4% | – |
| C[C@@H]1C[C@H]2[C@@H]3CCC4=CC(=O)C=C[C@]4(C)[C@@]3(F)[C@@H](O)C[C@]2(C)[C@@]1(O)C(=O)CO [Dexamethasone] | 212% | 162% | – |
| COc1cc2c(NC3CCN(C(C)C)CC3)nc(C3CCCCC3)nc2cc1OCCCN1CCCC1 [UNC0638] | 2.6% | 3.8% | – |
| O=C(CCCCCCC(=O)Nc1ccccc1)NO [vorinostat] | 2.82% | 6.02% | – |
| CCCS(=O)(=O)Nc1ccc(F)c(C(=O)c2c[nH]c3ncc(-c4ccc(Cl)cc4)cc23)c1F [Vemurafenib] | 103% | 108% | – |
| CC1=C2C[C@H]3[C@@H](CC=C4C[C@@H](O)CC[C@@]43C)[C@@H]2CC[C@]12O[C@@H]1C[C@H](C)CN[C@H]1[C@H]2C [cyclopamine] | – | 86.7% | viability [2, 3]: 49.3% |
